Laboratory results as given in BigSolDB 2.1.

N#Cc1ccc(C(c2ccc(C#N)cc2)n2cncn2)cc1
solubility (mole fraction)
Conditions	283.15 K	288.15 K	293.15 K	298.15 K	303.15 K	308.15 K	313.15 K	318.15 K	323.15 K
in THF	0.0164	0.0184	0.0206	0.0229	0.0254	0.0281	0.0309	0.034	0.0373
in acetone	0.0147	0.0168	0.019	0.0214	0.0241	0.027	0.0301	0.0335	0.0371
in acetonitrile	0.00638	0.0077	0.00923	0.011	0.0131	0.0154	0.018	0.021	0.0244
in ethanol	0.000456	0.000586	0.000748	0.000946	0.00119	0.00148	0.00183	0.00225	0.00275
in ethyl acetate	0.00527	0.00609	0.007	0.00802	0.00914	0.0104	0.0117	0.0132	0.0148
in methanol	0.00108	0.00133	0.00163	0.00198	0.00239	0.00287	0.00342	0.00406	0.00479
in methyl acetate	0.0105	0.0119	0.0135	0.0151	0.017	0.019	0.0211	0.0234	0.0259
in n-propanol	0.000351	0.000461	0.0006	0.000773	0.000989	0.00125	0.00158	0.00197	0.00245
